target: T1, human EphB4 receptor (Homo sapiens, UniProt P54760); experiment: EphB4 kinase assay, GST-EphB, 33P incorporation into poly(Glu,Tyr); assay type: biochemical; details: Table 5; read-out: EphB4, IC50 class
T1 construct: made in house; host or cells: Sf9 or Sf21 (baculovirus)
T1 sequence (P54760 566-987): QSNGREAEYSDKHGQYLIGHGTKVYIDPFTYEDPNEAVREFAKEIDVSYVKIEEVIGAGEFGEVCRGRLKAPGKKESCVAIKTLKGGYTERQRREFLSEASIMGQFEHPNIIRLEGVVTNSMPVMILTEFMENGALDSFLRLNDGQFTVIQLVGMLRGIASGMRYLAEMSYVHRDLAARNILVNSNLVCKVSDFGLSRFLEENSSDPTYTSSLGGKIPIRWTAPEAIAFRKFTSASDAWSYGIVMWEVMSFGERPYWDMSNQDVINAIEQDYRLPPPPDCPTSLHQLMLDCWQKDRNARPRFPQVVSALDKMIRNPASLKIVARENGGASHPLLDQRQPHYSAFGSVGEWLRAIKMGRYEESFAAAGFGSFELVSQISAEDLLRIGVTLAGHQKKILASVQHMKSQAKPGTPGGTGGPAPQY
Source text: EphB4: Production and measure of enzymatic activity: Generation of Bac-to-Bac™ (Initrogen Life Technologies, Basel, Switzerland) GST-fusion expression vectors: Entire cytoplasmatic coding regions of the EphB-class are amplified by PCR from cDNA libraries derived from human placenta or brain, respectively. Recombinant baculovirus are generated that express the amino acid region 566-987 of the human EphB4 receptor (SwissProt Database, Accession No. P54760). GST sequence is cloned into pFastBac1® vector (Invitrogen Life Technologies, Basel, Switzerland) and PCR amplified. cDNAs encoding EphB4-receptor domains, respectively, are cloned in frame 3′prime to the GST sequence into this modified FastBac1 vector to generate pBac-to-Bac™ donor vectors. Single colonies arising from the transformation are inoculated to give overnight cultures for small scale plasmid preparation. […] By automated sequencing the inserts and approximately 50 bp of the flanking vector sequences are confirmed on both strands. Production of viruses: Viruses for each of the kinases are made according to the protocol supplied by GIBCO if not stated otherwise. In brief, transfer vectors containing the kinase domains are transfected into the DH10Bac cell line (GIBCO) and plated on selective agar plates. Colonies without insertion of the fusion sequence into the viral genome (carried by the bacteria) are blue. Single white colonies are picked and viral DNA (bacmid) isolated from the bacteria by standard plasmid purification procedures. Sf9 cells or Sf21 cells are then transfected in 25 cm2 flasks with the viral DNA using Cellfectin reagent according to the protocol. Purification of GST-tagged kinases: The centrifuged cell lysate is loaded onto a 2 mL glutathione-sepharose column (Pharmacia) and washed three times with 10 mL of 25 mM Tris-HCl, pH 7.5, 2 mM EDTA, 1 mM DTT, 200 mM NaCl. The GST-tagged proteins are then eluted by 10 applications (1 mL each) of 25 mM Tris-HCl, pH 7.5, 10 mM reduced-glutathione, 100 mM NaCl, 1 mM DTT, 10% Glycerol and stored at −70° C. Protein kinase assays: The activities of protein kinases are assayed in the presence or absence of inhibitors, by measuring the incorporation of 33P from [γ33P]ATP into a polymer of glutamic acid and tyrosine (poly(Glu,Tyr)) as a substrate. The kinase assays with purified GST-EphB (30 ng) are carried out for 15-30 min at ambient temperature in a final volume of 30 μL containing 20 mM Tris.HCl, pH 7.5, 10 mM MgCl2, 3-50 mM MnCl2, 0.01 mM Na3VO4, 1% DMSO, 1 mM DTT, 3 μg/mL poly(Glu,Tyr) 4:1 (Sigma; St. Louis, Mo., USA) and 2.0-3.0 μM ATP (γ-[33P]-ATP 0.1 μCi). The assay is terminated by the addition of 20 μL of 125 mM EDTA. Subsequently, 40 μl of the reaction mixture are transferred onto Immobilon-PVDF membrane (Millipore, Bedford, Mass., USA) previously soaked for 5 min with methanol, rinsed with water, then soaked for 5 min with 0.5% H3PO4 and mounted on vacuum manifold with disconnected vacuum source. After spotting all samples, vacuum is connected and each well rinsed with 200 μl 0.5% H3PO4. Membranes are removed and washed 4× on a shaker with 1.0% H3PO4, once with ethanol. Membranes are counted after drying at ambient temperature, mounting in Packard TopCount96-well frame, and addition of 10 μL/well of Microscint™ (Packard). IC50 values are calculated by linear regression analysis of the percentage inhibition of each compound in duplicate, at four concentrations (usually 0.01, 0.1, 1 and 10 μM). One unit of protein kinase activity is defined as 1 nmole of 33P ATP transferred from [γ33P] ATP to the substrate protein per minute per mg of protein at 37° C. Compounds of formula I show EphB4 inhibition down to 10 nM, preferably IC50 values between 0.01-1.0 μM.

IC50, < 1000 nM:
COc1ccc(-c2cnn3c(N)c(-c4ccc(F)c(Cl)c4)c(C)nc23)cc1OC [Example 94, 6-(3-Chloro-4-fluoro-phenyl)-3-(3,4-dimethoxy-phenyl)-5-methyl-pyrazolo[1,5-a]pyrimidin-7-ylamine]
COc1ccc(-c2cnn3c(N)c(-c4ccc(F)c(Cl)c4)c(C)nc23)cc1 [Example 95, 6-(3-Chloro-4-fluoro-phenyl)-3-(4-methoxy-phenyl)-5-methyl-pyrazolo[1,5-a]pyrimidin-7-ylamine]
COc1ccc(-c2cnn3c(N)c(-c4ccc(F)cc4)c(C)nc23)cc1 [Example 96, 6-(4-Fluoro-phenyl)-3-(4-methoxy-phenyl)-5-methyl-pyrazolo[1,5-a]pyrimidin-7-ylamine]
Cc1nc2c(-c3cccc(N4CCN(CCO)CC4)c3)cnn2c(N)c1-c1ccc(F)cc1 [Example 97, 2-(4-{3-[7-Amino-6-(4-fluoro-phenyl)-5-methyl-pyrazolo[1,5-a]pyrimidin-3-yl]-phenyl}-piperazin-1-yl)-ethanol]
Cc1nc2c(-c3cccc(N4CCN(C)CC4)c3)cnn2c(N)c1-c1ccc(F)c(F)c1 [Example 98, 6-(3,4-Difluoro-phenyl)-5-methyl-3-[3-(4-methyl-piperazin-1-yl)-phenyl]-pyrazolo[1,5-a]pyrimidin-7-ylamine]
COc1ccc(-c2cnn3c(N)c(-c4ccc(F)c(F)c4)c(C)nc23)cc1OC [Example 99, 6-(3,4-Difluoro-phenyl)-3-(3,4-dimethoxy-phenyl)-5-methyl-pyrazolo[1,5-a]pyrimidin-7-ylamine]
Cc1nc2c(-c3cccc(N4CCN(CCO)CC4)c3)cnn2c(N)c1-c1ccc(F)c(Cl)c1 [Example 100, 2-(4-{3-[7-Amino-6-(3-chloro-4-fluoro-phenyl)-5-methyl-pyrazolo[1,5-a]pyrimidin-3-yl]-phenyl}-piperazin-1-yl)-ethanol]
Cc1nc2c(-c3cccc(N4CCN(CCO)CC4)c3)cnn2c(N)c1-c1ccc(F)c(F)c1 [Example 101, 2-(4-{3-[7-Amino-6-(3,4-difluoro-phenyl)-5-methyl-pyrazolo[1,5-a]pyrimidin-3-yl]-phenyl}-piperazin-1-yl)-ethanol]
Cc1nc2c(-c3cccc(N4CCC(N5CCCC5)CC4)c3)cnn2c(N)c1-c1cccc(Cl)c1 [Example 102, 6-(3-Chloro-phenyl)-5-methyl-3-[3-(4-pyrrolidin-1-yl-piperidin-1-yl)-phenyl]-pyrazolo[1,5-a]pyrimidin-7-ylamine]
Cc1nc2c(-c3cccc(N4CCC(N5CCCC5)CC4)c3)cnn2c(N)c1-c1ccc(F)cc1 [Example 103, 6-(4-Fluoro-phenyl)-5-methyl-3-[3-(4-pyrrolidin-1-yl-piperidin-1-yl)-phenyl]-pyrazolo[1,5-a]pyrimidin-7-ylamine]
Cc1nc2c(-c3cccc(N4CC[N+](C)([O-])CC4)c3)cnn2c(N)c1-c1ccc(F)cc1 [Example 106, 6-(4-Fluoro-phenyl)-5-methyl-3-[3-(4-methyl-4-oxy-piperazin-1-yl)-phenyl]-pyrazolo[1,5-a]pyrimidin-7-ylamine]
Cc1nc2c(-c3cccc([N+]4([O-])CC[N+](C)([O-])CC4)c3)cnn2c(N)c1-c1ccc(F)cc1 (stereo not drawn) [Example 107, 6-(4-Fluoro-phenyl)-5-methyl-3-[3-(4-methyl-1,4-dioxy-piperazin-1-yl)-phenyl]-pyrazolo[1,5-a]pyrimidin-7-ylamine]
